Measurements taken from patent publication US20260234115A1, “LIPID COMPOUNDS, COMPOSITIONS, AND USES THEREOF” (Liberate Bio, Inc., priority 2023, published 2026).
Marks after values point to notes of the source that are not given here.

How the values were obtained:
[1] = Dynamic light scattering: LNP particle size and PDI; assay type: physicochemical; details: for PDI N/P:3 / Size (nm) N/P:3 / PDI N/P:6 / Size (nm) N/P:6: LNP
Description: (§1) Lipids and active ingredients (e.g., RNA, DNA, etc.) were assembled into LNPs using microfluidic mixing. An ethanol phase was prepared by solubilizing ionizable lipids (i.e., lipid compounds), phospholipids (e.g., DSPC), cholesterol, and PEG lipids in ethanol, at predetermined mol % ratios given in Table 2. An aqueous phase was prepared by diluting a nucleic acid cargo (e.g., firefly luciferase mRNA) in an acidified buffer (pH 4.0 citrate buffer, 50 mM). A chip with microfluidic mixing architecture (e.g., toroidal mixer) was used to mix the two phases at predetermined flow rate ratios (e.g., 9 ml/min for the aqueous phase and 3 ml/min for the ethanol phase). Resulting LNPs comprising the lipids and encapsulating the nucleic acid cargo were dialyzed against PBS pH 7.4 for 2 hours at room temperature in a 20 kDa MWCO dialysis membrane. Then, PBS was refreshed to continue dialysis overnight at 2-8 TC. Upon completion of the buffer exchange, LNPs were optionally concentrated using a ultracentrifugal unit with a 10-100 kDa MWCO membrane.
d. Dynamic Light Scattering
LNPs were diluted with PBS pH 7.4 to predetermined dilution ranges based on the process step and LNP concentration. Following mixing, the particle size and PDI were measured by a dynamic light scattering instrument.

[2] = Plate-based fluorescence (RiboGreen) assay: nucleic acid cargo content and encapsulation efficiency of LNPs; assay type: physicochemical; details: for EE (%) N/P:3 / EE (%) N/P:6: LNP
Description: as §1
c. Plate-Based Fluorescence (RiboGreen) Assay
Nucleic acid cargos in the LNPs were quantified by RiboGreen assay, against a nucleic acid standard curve. LNPs encapsulating nucleic acid cargo were mixed with 1× Tris-EDTA (TE) and 2% triton in TE, separately, to achieve dilutions required by the assay. Then, the samples were heated at 30° C. and vortexed at 300 rpm. Samples were plated into 96-well plates and RiboGreen reagent was added into each well. Following incubation in the dark, fluorescence was measured from the wells, and plotted against the standard curve. Nucleic acid concentration obtained from the Triton-treated samples were used for total cargo concentration quantification. Only TE diluted sample fluorescence values were used to determine the non-encapsulated (free) cargo, and their ratio was used to determine the encapsulation efficiency (EE %).

mouse organs = assay: In vivo activity screening in mice: organ mean total flux (p/s) of luciferase activity after injection of F2 LNP pools (Table 6, FIG. 7A-7C); details: luciferase mRNA
How it was run: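 Luciferase output per organ is reported as mean total flux (p/s) from IVIS regions of interest. Organs were collected from perfused C57BL/6J mice and imaged 10-15 min after s.c. D-luciferin, 4-6 h after i.v. dosing. Dosing was 0.25-3 mg/kg luciferase mRNA in F2 LNP pools.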

[3] = LNP compositions for in vivo mouse study, four formulations (F1-F4) of the lipid compound pooled, or pools of four compounds (sixteen compositions)
[4] = LNP compositions for in vivo mouse study, four formulations (F1-F4) pooled, or pools of four compounds
[5] = LNP compositions for Formulation F2 Study

| SMILES | Particle Size (nm) [1, 3] | PDI [1, 4] | PDI N/P:6 ([1]; Formulation F1, N/P 6) | Size (nm) N/P:6 ([1]; Formulation F1, N/P 6) | PDI N/P:6 ([1]; Formulation F2, N/P 6) | Size (nm) N/P:6 ([1]; Formulation F2, N/P 6) | PDI N/P:6 ([1]; Formulation F3, N/P 6) | Size (nm) N/P:6 ([1]; Formulation F3, N/P 6) | PDI N/P:6 ([1]; Formulation F4, N/P 6) | Size (nm) N/P:6 ([1]; Formulation F4, N/P 6) | EE % [2, 4] | mRNA Content [2, 4] | EE (%) N/P:6 ([2]; Formulation F1, N/P 6) | EE (%) N/P:6 ([2]; Formulation F2, N/P 6) | EE (%) N/P:6 ([2]; Formulation F3, N/P 6) | EE (%) N/P:6 ([2]; Formulation F4, N/P 6) | Organ Mean Total Flux Femur (mouse organs; Mouse 1, dose 0.3 mg/kg) | Organ Mean Total Flux Heart (mouse organs; Mouse 1, dose 0.3 mg/kg) | Organ Mean Total Flux Kidney (mouse organs; Mouse 1, dose 0.3 mg/kg) | Organ Mean Total Flux Liver (mouse organs; Mouse 1, dose 0.3 mg/kg) | other results |
| --- | --- | --- | --- | --- | --- | --- | --- | --- | --- | --- | --- | --- | --- | --- | --- | --- | --- | --- | --- | --- | --- |
| CCCCC/C=C\C/C=C\CCCCCCCC(=O)OCC(COC(=O)CCCCCCC/C=C\C/C=C\CCCCC)(COC(=O)CCC(CCCCCC)OC(=O)NCCN1CCCC1)COC(=O)CCC(OCCCCCCCC)OCCCCCCCC (centres unmarked) [Compound 6, [2-(4,4-dioctoxybutanoyloxymethyl)-2-[[(9Z,12Z)-octadeca-9,12-dienoyl]oxymethyl]-3-[4-(2-pyrrolidin-1-ylethylcarbamoyloxy)decanoyloxy]propyl](9Z,12Z)-octadeca-9,12-dienoate] | 77.9 nm | 0.107 | 0.172 | 69 ± 3 nm | 0.012 | 83 ± 1 nm | 0.078 | 85 ± 1 nm | 0.081 | 63 ± 1 nm | 99% | 100.1 µg/mL | 100% | 100% | 100% | 100% | 6.1 p/s (×10^6) | 2.1 p/s (×10^6) | 1.3 p/s (×10^6) | 2966 p/s (×10^6) | PDI N/P:3 ([1]; Formulation F1, N/P 3): 0.09; Size (nm) N/P:3 ([1]; Formulation F1, N/P 3): 77 ± 2 nm; PDI N/P:3 ([1]; Formulation F2, N/P 3): 0.027; Size (nm) N/P:3 ([1]; Formulation F2, N/P 3): 89 ± 2 nm; PDI N/P:3 ([1]; Formulation F3, N/P 3): 0.059; Size (nm) N/P:3 ([1]; Formulation F3, N/P 3): 105 ± 5 nm; PDI N/P:3 ([1]; Formulation F4, N/P 3): 0.084; Size (nm) N/P:3 ([1]; Formulation F4, N/P 3): 65 ± 1 nm; EE (%) N/P:3 ([2]; Formulation F1, N/P 3): 99%; EE (%) N/P:3 ([2]; Formulation F2, N/P 3): 99%; EE (%) N/P:3 ([2]; Formulation F3, N/P 3): 95%; EE (%) N/P:3 ([2]; Formulation F4, N/P 3): 98%; Organ Mean Total Flux Lung (mouse organs; Mouse 1, dose 0.3 mg/kg): 17.6 p/s (×10^6); Organ Mean Total Flux Muscle (mouse organs; Mouse 1, dose 0.3 mg/kg): 8.3 p/s (×10^6); Organ Mean Total Flux Pancreas (mouse organs; Mouse 1, dose 0.3 mg/kg): 2.1 p/s (×10^6); Organ Mean Total Flux Spleen (mouse organs; Mouse 1, dose 0.3 mg/kg): 14.1 p/s (×10^6) |
| CCCCC/C=C\CCOC(=O)CCCCCC(=O)OCC(COC(=O)CCCCCC(=O)OCC/C=C\CCCCC)(COC(=O)CCCCCC(=O)OCC/C=C\CCCCC)COC(=O)CCC(CCCCCC)OC(=O)NCCN1CCCC1 (centres unmarked) [Compound 7, O7-[2,2-bis[[7-[(Z)-non-3-enoxy]-7-oxo-heptanoyl]oxymethyl]-3-[4-(2-pyrrolidin-1-ylethylcarbamoyloxy)decanoyloxy]propyl]O1-[(Z)-non-3-enyl]heptanedioate] | 89.3 nm | 0.14 | 0.08 | 75 ± 1 nm | 0.11 | 97 ± 5 nm | 0.09 | 99 ± 2 nm | 0.21 | 75 ± 3 nm | 96% | 84 µg/mL | 99% | 97% | 98% | 98% | 2.4 p/s (×10^6) | 0.2 p/s (×10^6) | 0.7 p/s (×10^6) | 140.0 p/s (×10^6) | PDI [1, 5]: 0.086; Particle Size (nm) [1, 5]: 120.8 nm; EE % [2, 5]: 98%; Organ Mean Total Flux Lung (mouse organs; Mouse 1, dose 0.3 mg/kg): 4.9 p/s (×10^6); Organ Mean Total Flux Muscle (mouse organs; Mouse 1, dose 0.3 mg/kg): 2.5 p/s (×10^6); Organ Mean Total Flux Pancreas (mouse organs; Mouse 1, dose 0.3 mg/kg): 1.8 p/s (×10^6); Organ Mean Total Flux Spleen (mouse organs; Mouse 1, dose 0.3 mg/kg): 29.0 p/s (×10^6); Organ Mean Total Flux Femur (mouse organs; Mouse 14, dose 0.5 mg/kg): 5.7 p/s (×10^6); Organ Mean Total Flux Heart (mouse organs; Mouse 14, dose 0.5 mg/kg): 0.9 p/s (×10^6); Organ Mean Total Flux Kidney (mouse organs; Mouse 14, dose 0.5 mg/kg): 3.2 p/s (×10^6); Organ Mean Total Flux Liver (mouse organs; Mouse 14, dose 0.5 mg/kg): 338.0 p/s (×10^6); Organ Mean Total Flux Lung (mouse organs; Mouse 14, dose 0.5 mg/kg): 14.5 p/s (×10^6); Organ Mean Total Flux Muscle (mouse organs; Mouse 14, dose 0.5 mg/kg): 48.2 p/s (×10^6); Organ Mean Total Flux Pancreas (mouse organs; Mouse 14, dose 0.5 mg/kg): 1.5 p/s (×10^6); Organ Mean Total Flux Spleen (mouse organs; Mouse 14, dose 0.5 mg/kg): 11.8 p/s (×10^6) |
